Here are results for 34 molecules from ChEMBL document CHEMBL5331088, “Design and synthesis of novel halogen rich salicylanilides as potential antileishmanial agents” (Eur J Med Chem, 2023).

Series [1] can be described thus: Cytotoxicity against mouse J774A.1 cells assessed as reduction in cell viability by MTT assay. Type of series: toxicity, cell-based, J774.A1. On the technique in general: Tetrazolium assays rely on reduction of a dye to a coloured formazan, in cell work by metabolically active cells.
The nature of series [2]: Selectivity index, ratio of CC50 for cytotoxicity against African green monkey Vero cells to IC50 for antileishmanial activity against Leishmania donovani amastigotes infected in J774.A1 macrophage. Type of series: toxicity, cell-based. The note with it: read-out: Ratio CC50/IC50.
A short description of series [3]: Selectivity index, ratio of CC50 for cytotoxicity against mouse J774.A1 cells to IC50 for antileishmanial activity against Leishmania donovani amastigotes infected in J774.A1 macrophage. The class given is toxicity, cell-based. To be noted: read-out: Ratio CC50/IC50.
Series [4] concerns Leishmania donovani. As to the kind of experiment: Antileishmanial activity against Leishmania donovani amastigotes infected in golden hamster model assessed as inhibition of splenic parasite burden at 50 mg/kg,ip for 5 consecutive days measured after 7 days of post treatment. Type of series: functional. The note with it: for inhibition in vivo at 50 mg/kg: 168 h, time 7 day.

For series [5], the system named is Leishmania donovani. As to the kind of experiment: Antileishmanial activity against Leishmania donovani amastigotes infected in J774.A1 macrophage assessed as inhibition of parasite growth by luciferase assay. Type of series: functional, organism-based.
A short description of series [6]: Cytotoxicity against African green monkey Vero cells assessed as reduction in cell viability by MTT assay. The class given is toxicity, cell-based. To be noted: chlorocebus sabaeus.
For series [7], the system named is Leishmania donovani. As to the kind of experiment: Antileishmanial activity against Leishmania donovani amastigotes infected in golden hamster model assessed as inhibition of splenic parasite burden at 50 mg/kg,ip for 5 consecutive days measured after 28 days of post treatment. The class given is functional. The note with it: for inhibition in vivo at 50 mg/kg: 672 h, time 28 day.

[8] abbreviates: Leishmania donovani, J774.A1, read-out: IC50.

Turning to `O=C(Nc1ccc(Cl)cc1)c1cc(Cl)ccc1O`, the 50% cytotoxic concentration (CC50) in series [1] was determined as 39 µM; in series [6] it was 16.3 µM. Further, the figures for the selectivity ratio in series [2] and in series [3] were 7.8 and 18.7, respectively. Further, the inhibition in vivo at 50 mg/kg with Leishmania donovani [4] worked out at 63.1%; in the series with Leishmania donovani [7] it was 65.2%. In the series with Leishmania donovani [5] (setting [8]), the IC50 stood at 2.09 µM.

Take `O=C(Nc1cccc(Cl)c1)c1cc(Cl)ccc1O`: the figures for the CC50 in series [1] and in series [6] were 50.5 µM and 13.9 µM, respectively. The selectivity ratio came to 3 in series [2] and 10.9 in series [3]. Further, the IC50 in the series on Leishmania donovani [5] (setting [8]) turned out to be 4.62 µM.

For `O=C(Nc1ccc(F)cc1[N+](=O)[O-])c1ccccc1O`, the CC50 in series [1] was 41.1 µM; in series [6] it was 65.2 µM. Besides, the selectivity ratio came to 8.73 in series [2] and 5.5 in series [3]. For the same molecule, the IC50 in the series on Leishmania donovani [5] (setting [8]) was found to be 7.47 µM.

Regarding `O=C(Nc1ccc(F)cc1)c1ccccc1O`, the concentration for half-maximal inhibition (IC50) entry with Leishmania donovani [5] is given as “Not Active”.

As for `O=C(Nc1ccc(F)cc1)c1cc(Cl)ccc1O`, in the series on Leishmania donovani [5], the 50% inhibitory concentration (IC50) result was “Not Active”.

Regarding `O=C(Nc1ccc(Cl)c(C(F)(F)F)c1)c1ccccc1O`, the IC50 entry in the series with Leishmania donovani [5] is reported as “Not Active”.

As to `CCCCCCCCCCCCCCCCOP(=O)([O-])OCC[N+](C)(C)C` [MILTEFOSINE], the 50% cytotoxic concentration (CC50) stood at 53.3 µM in series [1] and 51.8 µM in series [6]. Also, the selectivity ratio turned out to be 5.6 in series [2] and 5.76 in series [3]. In addition, the IC50 in the series with Leishmania donovani [5] (setting [8]) was 9.25 µM.

As to `O=C(Nc1ccccc1)c1ccccc1` [N-PHENYLBENZAMIDE], in the series on Leishmania donovani [5], the IC50 entry was “Not Active”.

For the molecule `O=C(Nc1ccc(F)c(Cl)c1)c1cc(Cl)ccc1O`, the half-maximal cytotoxic concentration (CC50) stood at 52.4 µM in series [1] and 14.5 µM in series [6]. Further, the selectivity ratio in series [2] turned out to be 5.02; in series [3], 18.1. Besides, the inhibition in vivo at 50 mg/kg in the series with Leishmania donovani [4] amounted to 25.1%; in the series with Leishmania donovani [7] it was 16.5%. Besides, the IC50 with Leishmania donovani [5] (setting [8]) amounted to 2.89 µM.

For the molecule `O=C(Nc1ccccc1)c1cc(Cl)ccc1O`, the IC50 entry in the series on Leishmania donovani [5] is “Not Active”.

As to `O=C(Nc1ccc([N+](=O)[O-])cc1Cl)c1ccccc1`, the 50% inhibitory concentration (IC50) entry with Leishmania donovani [5] was “Not Active”.

On to `O=C(Nc1ccc(F)c(Cl)c1)c1ccccc1O`, for which, in the series with Leishmania donovani [5], the IC50 entry is “Not Active”.

On to `O=C(Nc1ccc([N+](=O)[O-])cc1F)c1ccccc1O`, for which the results for the half-maximal cytotoxic concentration (CC50) in series [1] and in series [6] were 42.8 µM and 11.7 µM, respectively. Moreover, the figures for the selectivity ratio in series [2] and in series [3] were 2.89 and 10.5, respectively. The half-maximal inhibitory concentration (IC50) in the series with Leishmania donovani [5] (setting [8]) turned out to be 4.06 µM.

Consider `O=C(Nc1ccccc1F)c1ccccc1O`, for which, in the series with Leishmania donovani [5], the half-inhibitory concentration (IC50) result is “Not Active”.

Take `O=C(Nc1cc(Cl)cc(Cl)c1O)c1c(O)c(Cl)cc(Cl)c1Cl` [OXYCLOZANIDE]: the CC50 was found to be 42.4 µM in series [1] and 156 µM in series [6]. Further, the selectivity ratio in series [2] was determined as 31.2; in series [3], 5.49. Besides, the IC50 in the series with Leishmania donovani [5] (setting [8]) was determined as 7.71 µM.

On to `O=C(Nc1ccc(Cl)c(C(F)(F)F)c1)c1cc(Cl)ccc1O`, for which the CC50 in series [1] stood at 52.4 µM; in series [6], 4.31 µM. In addition, the values for the selectivity ratio in series [2] and in series [3] were 1.08 and 13.1, respectively. For the same molecule, the 50% inhibitory concentration (IC50) in the series on Leishmania donovani [5] (setting [8]) was 4 µM.

Take `O=C(Nc1ccc(Br)c(C(F)(F)F)c1)c1ccccc1O`: the 50% cytotoxic concentration (CC50) in series [1] came to 44.2 µM; in series [6] it was 4.33 µM. Moreover, the values for the selectivity ratio in series [2] and in series [3] were 1.13 and 11.6, respectively. In addition, the half-maximal inhibitory concentration (IC50) in the series on Leishmania donovani [5] (setting [8]) was found to be 3.82 µM.

Consider `O=C(Nc1cccc(C(F)(F)F)c1)c1cc(Cl)ccc1O`, for which the IC50 in the series with Leishmania donovani [5] (setting [8]) is 3.47 µM. Besides, the cytotoxic concentration (CC50) in series [6] turned out to be 3.17 µM.

On to `O=C(Nc1cc(Cl)cc(Cl)c1)c1cc(Cl)ccc1O`, for which the CC50 in series [1] is 38.8 µM; in series [6], 6.49 µM. Also, the selectivity ratio in series [2] was determined as 1.69; in series [3], 10.1. For the same molecule, the 50% inhibitory concentration (IC50) in the series with Leishmania donovani [5] (setting [8]) was found to be 3.83 µM.

For `O=C(Nc1ccc(Br)c(C(F)(F)F)c1)c1cc(Cl)ccc1O`, the CC50 in series [1] was found to be 46.6 µM; in series [6], 2.54 µM. Besides, the selectivity ratio was 0.72 in series [2] and 13.3 in series [3]. In addition, the IC50 in the series with Leishmania donovani [5] (setting [8]) was 3.5 µM.

Regarding `O=C(Nc1ccc(Br)cc1)c1cc(Cl)ccc1O`, the cytotoxic concentration (CC50) is 50.8 µM in series [1] and 10.1 µM in series [6]. The selectivity ratio in series [2] is 2.64; in series [3], 13.3. For the same molecule, the half-maximal inhibitory concentration (IC50) with Leishmania donovani [5] (setting [8]) worked out at 3.83 µM.

Take Sodium stibogluconate: the inhibition in the series with Leishmania donovani [4] (time 7.0 day) is 81.4%; with Leishmania donovani [7] (time 28.0 day), 85.4%.

Consider `O=C(Nc1ccc(F)c(F)c1)c1ccccc1O`, for which the cytotoxic concentration (CC50) in series [1] came to 43.9 µM; in series [6] it was 45.4 µM. For the same molecule, the selectivity ratio in series [2] was 6.17; in series [3], 5.96. In addition, in the series on Leishmania donovani [5] (setting [8]), the IC50 is 7.36 µM.

With `O=C(Nc1ccc([N+](=O)[O-])cc1Cl)c1ccccc1O`, the cytotoxic concentration (CC50) was 42.1 µM in series [1] and 7.29 µM in series [6]. The figures for the selectivity ratio in series [2] and in series [3] were 2.23 and 12.9, respectively. Also, in the series on Leishmania donovani [5] (setting [8]), the IC50 worked out at 3.27 µM.

Regarding `O=C(Nc1ccccc1Cl)c1cc(Cl)ccc1O`, the CC50 in series [1] came to 46.5 µM; in series [6], 13.2 µM. The selectivity ratio in series [2] was 5.02; in series [3], 17.7. Further, the IC50 in the series on Leishmania donovani [5] (setting [8]) came out at 2.62 µM.

`O=C(Nc1ccccc1F)c1cc(Cl)ccc1O`: the CC50 in series [1] amounted to 44 µM; in series [6], 12.1 µM. Besides, the selectivity ratio in series [2] stood at 3.06; in series [3], 11.1. Besides, the IC50 with Leishmania donovani [5] (setting [8]) came to 3.95 µM.

On to `O=C(Nc1ccc(F)cc1[N+](=O)[O-])c1cc(Cl)ccc1O`, for which the CC50 was determined as 49.6 µM in series [1] and 21.9 µM in series [6]. For the same molecule, the values for the selectivity ratio in series [2] and in series [3] were 5.65 and 12.8, respectively. In the series with Leishmania donovani [5] (setting [8]), the 50% inhibitory concentration (IC50) came out at 3.88 µM.

Consider `O=C(Nc1cc(Cl)cc(Cl)c1)c1ccccc1O`, for which the half-maximal cytotoxic concentration (CC50) worked out at 42.2 µM in series [1] and 7.09 µM in series [6]. Besides, the selectivity ratio in series [2] turned out to be 0.89; in series [3] it was 5.3. Also, the IC50 in the series on Leishmania donovani [5] (setting [8]) is 7.97 µM.

In the case of `O=C(Nc1ccc([N+](=O)[O-])cc1Cl)c1cc(Cl)ccc1O` [NICLOSAMIDE], the CC50 in series [1] was found to be 42.1 µM; in series [6], 3.06 µM. Also, the selectivity ratio in series [2] was determined as 0.61; in series [3], 11.4. Moreover, in the series with Leishmania donovani [5] (setting [8]), the IC50 worked out at 3.68 µM.

Take `O=C(Nc1ccccc1)c1cccc(Cl)c1`: the IC50 entry in the series on Leishmania donovani [5] is given as “Not Active”.

Regarding `O=C(Nc1ccc(F)c(F)c1)c1cc(Cl)ccc1O`, the results for the CC50 in series [1] and in series [6] were 51.2 µM and 10.6 µM, respectively. Besides, the selectivity ratio in series [2] was 2.99; in series [3], 14.5. Also, the half-maximal inhibitory concentration (IC50) with Leishmania donovani [5] (setting [8]) turned out to be 3.54 µM.

As for `O=C(Nc1ccc([N+](=O)[O-])cc1F)c1cc(Cl)ccc1O`, the figures for the CC50 in series [1] and in series [6] were 43.1 µM and 3.23 µM, respectively. The selectivity ratio in series [2] turned out to be 0.81; in series [3] it was 10.8. The IC50 in the series on Leishmania donovani [5] (setting [8]) worked out at 3.98 µM.

`O=C(Nc1ccccc1)c1ccccc1O` [SALICYLANILIDE]: the IC50 entry in the series with Leishmania donovani [5] is “Not Active”.

As to `O=C(Nc1ccc([N+](=O)[O-])cc1Cl)c1cccc(Cl)c1`, the IC50 entry in the series on Leishmania donovani [5] was “Not Active”.

The term CC50 denotes the concentration giving 50% cytotoxicity. In general, inhibition in vivo refers to the drop in the measured response relative to a control, in per cent. Usually IC50 stands for the point on the concentration scale where inhibition reaches its midpoint. What is called inhibition is the share of the control response that was lost under treatment.
